From patent US10941157B2, “Pesticidal compositions and uses thereof” (Gilead Apollo, LLC, priority 2015, dated 2021) come the findings set out here.

Values after ≈ are worked out from the molar mass of the structure shown. Bounds are passed on as bounds.

One experiment concerns Pythium ultimum. As to the kind of experiment: Seed protectant for soybean seedling disease, P. ultimum. In kind it is in vivo. The settings on record: soybean from treated seeds, 0.025 mg/seed, P. ultimum inoculated. The procedure:
(§1) The pathogen of Rhizoctonia solani inoculum was grown on sterile sorghum; and the pathogen of Pythium ultimum inoculum was grown on white millet.
(§2) Soybean seeds (Glycine max cv. AG4832) were planted in 2.5-inch square pots containing Berger BM2 germination mix amended with fertilizer (e.g., 14-14-14). Pots with soil were inoculated with the pathogen of R. solani or P. ultimum at time of planting. A hole was pressed into the soil to a depth of about 2 to 3 cm; the inoculum was added to the hole, followed by the seed which was then covered with soil. Two seeds per pot were planted. Plants were grown in a growth chamber at conditions of 20 to 24° C., 14 hour light cycle, 500 uM of light, and 65% humidity. The pots inoculated with P. ultimum were sub-irrigated every day; and the pots inoculated with R. solani were sub-irrigated every other day.
(§3) Seedling emergence was captured at 7 and 14 days after seeding. At 14 days, the top of the plant was removed and fresh weight was recorded. The plant weights from the seeds treated with test compounds (e.g., in formulations) were compared to the ones either from the inoculated non-treated seeds or non-inoculated non-treated seeds. Table 10 lists the results of the R. solani control in soybean upon seed treatment with test compounds, and Table 11 lists the results of the P. ultimum control in soybean upon seed treatment with test compounds, respectively.

Experiment [1] has as its system Fusarium virguliforme (Fv). Description: In vitro pathogen growth inhibition assay, Fv. In kind it is cell-based. The settings on record: ≥90% growth inhibition, 48 hours, vs 2% DMSO control, read-out: Compound Concentration (ppm) sufficient for ≥90% inhibition of Fv. In outline: (§4)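 Value reported is the compound concentration reaching ≥90% growth inhibition, from OD readings at 24 and 48 h after blank subtraction, confirmed visually. Inoculum was spores diluted in 17% V8 medium, except Rs, using 1.5 mm mycelial plugs in ¼ PDB; actual compound concentration corrected via OD600.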

Experiment [2] has as its system Fusarium graminearum. In kind it is in vivo. The settings on record: spray on flowering Triticum aestivum cv. Samson, inoculated 24 hours after treatment, evaluated 14 days later.
Another experiment relates to Puccinia triticina. As to the kind of experiment: Foliar protection test for wheat leaf rust control. In kind it is in vivo. As to conditions: foliar application to wheat (Triticum aestivum cv. Winterhawk), evaluated 10 days later.
The test system of experiment [3] is Fusarium graminearum. In kind it is in vivo. The settings on record: corn from treated seeds, 0.025 mg/seed, F. graminearum inoculated, Table 12.
In another experiment the test system is Phakopsora pachyrhizi. Description: Foliar protection test for Asian soybean rust control. In kind it is in vivo. The settings on record: foliar application to soybean (Glycine max AG4832), percent disease area evaluated 14 days later.
For a further experiment, the system named is Sphaerotheca fuliginea. Description: Foliar protection for cucumber powdery mildew control. In kind it is in vivo. As to conditions: foliar spray on Cucumis sativus cv. Straight Eight, inoculated 24 hours after treatment, evaluated 7 days later. In outline: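 Cucumber plants (cv. Straight Eight, 10 days old) sprayed to wetness on both leaf surfaces, then inoculated 24 h later by shaking sporulating stock plants over them. Held at 23–27 °C, 16 h light, 60% RH. Mildew colonization scored 7 days after inoculation, at compound concentrations of 10 ppm or lower.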

The subject of another experiment is Septoria tritici (St). As to the kind of experiment: In vitro pathogen growth inhibition assay, St. In kind it is cell-based. The settings on record: ≥90% growth inhibition; 48 hours; vs 2% DMSO control. In outline: (§5)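 Spores in 17% V8 liquid medium, or 1.5 mm Rs mycelial plugs in ¼ PDB, incubated with compound; final concentration checked by OD600 for precipitation. OD readings at 24 and 48 h, blank-subtracted, plus visual ratings; value is concentration giving ≥90% growth inhibition.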

Experiment [4] deals with Blumeria graminis f. sp. hordei. As to the kind of experiment: Foliar protection test for barley powdery mildew control. In kind it is in vivo. The settings on record: foliar spray on Hordeum vulgare cv. Perry, inoculated 24 hours after treatment, evaluated 7 days later. In outline: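 Six-day-old barley (cv. Perry) sprayed to wetness on both leaf sides; 24 h later inoculated by shaking spores from infected stock plants. Kept at 20 to 22° C, 70% relative humidity; mildew colonization assessed 7 days later.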

The next experiment relates to Rhizoctonia solani (Rs). As to the kind of experiment: In vitro pathogen growth inhibition assay, Rs (mycelial plugs). In kind it is cell-based. As to conditions: Rhizoctonia solani, 48 h, ≥90% growth inhibition; mycelial plugs; 48 hours; vs 2% DMSO control; read-out: Compound Concentration (ppm) sufficient for ≥90% inhibition of Rs. In outline:
as §4

The test system of experiment [5] is Mycosphaerella graminicola (synthetic Septoria tritici). As to the kind of experiment: Foliar protection test for wheat septoria leaf blotch control. In kind it is in vivo. As to conditions: foliar spray on Triticum aestivum cv. WinterHawk, inoculated 1 hour after treatment, evaluated 16 days later.
Experiment [6] has as its system Fusarium moniliforme (Fm). Description: In vitro pathogen growth inhibition assay, Fm. In kind it is cell-based. As to conditions: Fusarium verticillioides; ≥90% growth inhibition; 48 hours; vs 2% DMSO control; read-out: Compound Concentration (ppm) sufficient for ≥90% inhibition of Fm. In outline:
as §5

Experiment [7] has as its system Blumeria graminis f. sp. hordei. Description: Early foliar disease control via seed treatment (barley powdery mildew). The settings on record: seed treatment rate 0.025 mg/seed; barley inoculated 7 days after planting, evaluated 7 days later. In kind it is in vivo. As to the method: Barley seeds (Hordeum vulgare cv. Perry or Conlon) were treated with a test compound dissolved in pure acetone, in which the acetone solution (1 mL) was used per 50 seeds in glass jars in a fume hood. The seeds were swirled in the glass jars by hand until no obvious presence of acetone remained and the seeds were mostly dry. Plants were grown for 7 days in 2-inch square pots containing Metromix 200 medium amended with fertilizer. […] After inoculation with the pathogen of Blumeria graminis f. sp. hordei, plants were kept at conditions of 20 to 22° C., 200 uM of light, 70% humidity to facilitate infection and disease development. At 7 days after planting (1st true leaf fully expanded), the plants were moved to the cooler chamber and inoculated by shaking well-colonized, untreated stock plants above the treated material. […] Efficacy was evaluated in 7 days later by examining leaves for colonization and growth of powdery mildew. Each side of each leaf was assigned a severity rating of 0, 1, 5, 10, 25, 50, 75, or 100 percent diseased area. Table 14 lists the results of barley powdery mildew control upon seed treatment with test compounds.

The next experiment deals with Rhizoctonia solani. As to the kind of experiment: Seed protectant for soybean seedling disease, R. solani. The settings on record: soybean from treated seeds, 0.025 mg/seed, R. solani inoculated. In kind it is in vivo. As to the method:
as §1, §2, §3

Where [8] appears, read: percentage of non-inoculated non-treated controls.

As for `CCOC(=O)c1sc2c(c1C)c(=O)n(C(C)(C)C(=O)NC(C)C)c(=O)n2C[C@H](OCCC#N)c1cc(F)ccc1OC` [Compound I-181, (R)-ethyl-1-(2-(2-cyanoethoxy)-2-(5-fluoro-2-methoxyphenyl)ethyl)-3-(1-(isopropylamino)-2-methyl-1-oxopropan-2-yl)-5-methyl-2,4-dioxo-1,2,3,4-tetrahydrothieno[2,3-d]pyrimidine-6-carboxylate], the “Plant Weight” value in the experiment on Pythium ultimum (fresh weight at 14 days) was 4.73 g; with Rhizoctonia solani (fresh weight at 14 days), 3.16 g. Besides, the results for the “Improvement in plant weight” value in the experiment on Pythium ultimum (setting [8]) and with Rhizoctonia solani (setting [8]) were 76% and 39.4%, respectively. For the same compound, the IC90 in experiment [1] worked out at 0.4 µg/mL (≈ 0.664 µM); in the experiment with Rhizoctonia solani (Rs), 0.08 µg/mL (≈ 0.133 µM); in experiment [6] it was 0.08 µg/mL (≈ 0.133 µM). In the experiment on Fusarium graminearum [2], the “Wheat Fusarium Head Blight Control at a compound concentration of 25 ppm or lower” value is “B (from 50 to 69% control of wheat fusarium head blight)”. In addition, the “Wheat Leaf Rust Control at a compound concentration of 10 ppm or lower” value in the experiment on Puccinia triticina was “AA (≥85% control of wheat leaf rust)”. In the experiment on Fusarium graminearum [3], the “Plant Height” value is on record as 47.63 cm. Also, the “Asian Soybean Rust Control at a compound concentration of 25 ppm or lower” value in the experiment on Phakopsora pachyrhizi was “B (from 50 to 69% control of Asian soybean rust)”. The “Cucumber Powdery Mildew Control at a compound concentration of 10 ppm or lower” value in the experiment on Sphaerotheca fuliginea is on record as “AA (≥85% control of cucumber powdery mildew)”. The “Compound Concentration (ppm) sufficient for ≥90% inhibition of St” value in the experiment with Septoria tritici (St) is given as at least 10.0 ppm. Further, the “Barley Powdery Mildew Control at a compound concentration of 10 ppm or lower” value in experiment [4] is listed as “AA (≥85% control of barley powdery mildew)”. In [5], the “Septoria Leaf Blotch Control at a compound concentration of 25 ppm or lower” value is “B (from 50 to 69% control of wheat septoria leaf blotch)”. Also, the “Barley Powdery Mildew Reduction (%)” value in experiment [7] turned out to be 57%.
